Results published in patent US20050004016A1, “Method of obtaining peptides with tissue-specific activity and pharmaceutical compositions on their basis” (priority 2000, published 2005).
Residues, ends and D or L forms follow the SMILES beside them.

Key:
[1] = test system: brain subcortical structure explants; experiment: Growth of brain subcortical structure explants (square index, organotypic culture); format: cell-based, chicken embryos; settings: 100 ng/ml, control SI = 100%
Protocol: Experiments were conducted on 69 fragments of brain subcortical structures of 10-11-days' old chicken embryos. The nutrient medium for cultivation consisted of 35% Eagle's solution, 25% calf foetal serum, 35% Hanks' solution, 5% chicken embryonic extract. The medium was also added glucose (0.6%), insulin (0.5 unit/ml), penicillin (100 unit/ml), glutamine (2 mM). Fragments of the brain subcortical structures were placed in this medium and cultivated in Petri's dishes in a thermostat at 36.7° C. for 48 hours. The experimental medium was added Ala-Glu-Asp-Gly tetrapeptide and Epithalamin in the concentrations of 2, 10, 20, 50, 100, 200, 400 ng/ml. Square index (SI) considered the criterion of biological activity. It was counted as the ratio between the total explant square including the growth zone and the initial square of the subcortical structure fragment Significance of differences between the average values of SI was assessed by Student's t-criterion. ST values were expressed percent, the control SI value being taken for 100%.
The growth zone of the control explants of the brain, subcortical structures included short neurites, migrating glia and fibroblast-resembling cells.
Immediate influence of the substances upon the fragments of the brain subcortical structures was investigated in the following experimental series.

cerebral cortex explants = experiment: Growth of cerebral cortex explants (square index, organotypic culture); format: cell-based, chicken embryos
Protocol: The experiments are conducted on 73 fragments of cerebral cortex explants of 10-11-days' chicken embryos. The nutrient medium for cultivation consisted of 35% Eagle's solution, 25% calf foetal serum, 35% Hanks' solution, 5% chicken embryonic extract. The medium was also added glucose (0.6%), insulin (0.5 unit/ml), penicillin (100 unit/ml), glutamine (2 mM). Fragments of the cerebral cortex were placed in this medium and cultivated in Petri's dishes in a thermostat at 36.7° C. for 48 hours. The experimental medium is was added Ala-Glu-Asp-Pro tetrapeptide and Cortexin in the concentrations of 2, 10, 20, 50, 100, 200, 400 ng/ml. Square index (SI) was considered the criterion of biological activity. It was counted as the ratio between the total explant square including the growth zone and the initial square of the cerebral cortex fragment and. Significance of differences between the average values of SI was assessed by Student's t-criterion. SI values were expressed per cent, the control SI value being taken for 100%.
The growth zone of the control cerebral cortex explants included short neurites, migrating glia and fibroblast cells.
Immediate influence of the substances upon the cerebral cortex fragments was investigated in the following experimental series.

liver explants = experiment: Growth of liver explants (square index, organotypic culture); format: cell-based, chicken embryos; settings: 20 ng/ml
Protocol: The experiments were carried out in 53 liver fragments of 10-11 days old chicken embryos. Nutrient medium for the explant cultivation consisted of 35% of Eagle's solution, 25% of foetal calf serum, 35% of Hank's solution and 5% of chicken embryonic extract. The mixture is added glucose (0.6%), insulin (0.5 unit/ml), penicillin (100 unit/m) and glutamine (2 mM). […] Lys-Glu-Asp-Ala tetrapeptide was added to the experimental medium in the concentrations of 2, 10, 20, 50, 100, 200 and 400 ng/mL Square index (SI) was taken for a biological activity criterion and calculated as a correlation of the total explant square including the growth zone to the initial square of a liver fragment. The SI values were expressed percent, the control SI value taken for 100%.

[2] = test system: monolayer hepatocyte culture; experiment: Intensity of protein synthesis ([3H]-leucin inclusion) in monolayer hepatocyte culture; format: cell-based, rats; settings: 0.005 μg/ml, 4 hours
Protocol: Intensity of the protein synthesis was investigated in the hepatocyte culture of rats aged 4, 8 and 18 months.
To isolate hepatocytes, rat liver was perfused with calcium-free Hanks' solution added 0.5 mM of EDTA and then 0.05% collagenase solution in Medium 199. The cellular suspension was filtered out and centrifuged. The hepatocyte suspension in the concentration of 5×10^5 was introduced into Petri's dishes, their bottoms surfaced with collagen-covered glass. Applied Medium 199 contained no bovine serum but was added 0.2 mg/ml of albumen and 5 μg/ml of insulin. The dishes with glass-covered bottoms were placed in a thermostat at 37° C., aerated and added CO2. […]
Protein synthesis was assessed by [^3H]-leucin inclusion regarding the standard errors for a free marked leucin pull in the same culture. […] Radioactivity of the pull of free intracellular leucin and cellular proteins (in hyamine fraction) after adding the corresponding scintillators was measured on a radioactivity counter SL-30.
The intensity of protein synthesis was calculated by the formula Icorr=Ii×Pav/Pi(cpm), where
Icorr—inclusion of leucin regarding the standard errors of free leucin pull, Ii—measured radioactivity of the proteins for i-culture, Pav—mean radioactivity of proteins and pull for the cultures studied in this experiment, Pi—total radioactivity of proteins and pull of the same culture. […]

Question: For `C[C@H](N)C(=O)N[C@@H](CCC(=O)O)C(=O)N[C@@H](CC(=O)O)C(=O)NCC(=O)O` [Ala-Glu-Asp-Gly tetrapeptide, alanyl-glutamyl-aspartyl-glycine] (H-AEDG-OH), which “SI of the experimental explants higher than that of the control fragments” value [1] is on record?
Answer: 24%

Question: How did the “SI of the experimental explants higher than that of the control cerebral cortex fragments” value (cerebral cortex explants; 20 ng/ml, control SI = 100%) turn out when `C[C@H](N)C(=O)N[C@@H](CCC(=O)O)C(=O)N[C@@H](CC(=O)O)C(=O)N1CCC[C@H]1C(=O)O` [Ala-Glu-Asp-Pro tetrapeptide, L-alanyl-L-glutamyl-L-aspartyl-L-proline] (H-AEDP-OH) was run?
Answer: 40±7%

Question: And the “concentration stimulating the fragments of cultivated cerebral cortex (threshold of effective concentrations)” value (cerebral cortex explants; tested 2-400 ng/ml)?
Answer: 20 ng/mL

Question: With `C[C@H](NC(=O)[C@H](CC(=O)O)NC(=O)[C@H](CCC(=O)O)NC(=O)[C@@H](N)CCCCN)C(=O)O` [Lys-Glu-Asp-Ala tetrapeptide, lysyl-glutamyl-aspartyl-alanine] (H-KEDA-OH) as the compound, how does the “effect on liver explants by longer terms of cultivation” value (liver explants; cultivation up to 7 days) read?
Answer: analogous stimulating effect

Question: What about the “increase in the explant SI as compared to the control value” (liver explants; third day of the cultivation, control SI = 100%) of the same compound?
Answer: 24%

Question: And the “amplitude of synthesis oscillations” value ([2]; hepatocytes of older rats)?
Answer: increased considerably

Question: And the “level of protein synthesis in hepatocytes” value ([2]; hepatocytes of rats aged 4, 8 and 18 months, strongest effect in cells of older animals)?
Answer: raised the level of protein synthesis
